{
  "source": "paper PMC8177775",
  "about": "(Cancer Science, 2021)",
  "origin": "cited, not measured here",
  "key": {"[1]": {"tested_on": "patients with acute myeloid leukemia", "conditions": "n = 36; cited from earlier work"}, "[2]": {"tested_on": "patients with solid tumors", "conditions": "cited from earlier work"}, "[3]": {"tested_on": "patients with wild‐type p53 and RAS or RAF mutations and locally advanced or metastatic solid tumors", "conditions": "26 patients; cited from earlier work"}},
  "data": [
    {"compound": "CC(C)[C@@H](CS(=O)(=O)C(C)C)N1C(=O)[C@@](C)(CC(=O)O)C[C@H](c2cccc(Cl)c2)[C@H]1c1ccc(Cl)cc1", "note": "[AMG 232]", "values": [
      {"measurement": "Common treatment-related AEs", "setting": "[1]", "value": "nausea, diarrhea, and vomiting"},
      {"measurement": "MTD", "setting": "[1]", "value": "not reached"}
    ]},
    {"compound": "CCOc1cc(C(C)(C)C)ccc1C1=N[C@@](C)(c2ccc(Cl)cc2)[C@@](C)(c2ccc(Cl)cc2)N1C(=O)N1CCN(CCCS(C)(=O)=O)CC1", "note": "[RG7112]", "values": [
      {"measurement": "Grade ≥ 3 lymphocyte count decreased", "setting": "[2]; n = 76", "value": 11, "unit": "patients"},
      {"measurement": "Grade ≥ 3 platelet count decreased", "setting": "[2]; n = 76", "value": "two patients"},
      {"measurement": "Tolerability", "setting": "[2]; patients (n = 76) with solid tumors", "value": "generally well tolerated"}
    ]},
    {"compound": "CC(C)(C)C[C@@H]1N[C@@H](C(=O)N[C@H]2CC[C@H](O)CC2)[C@H](c2cccc(Cl)c2F)[C@]12C(=O)Nc1cc(Cl)ccc12", "note": "[SAR405838]", "values": [
      {"measurement": "Most common reported AEs", "setting": "[3]", "value": "diarrhea, blood creatine phosphokinase increased, nausea, and vomiting"}
    ]}
  ]
}
